Results on seven substances are retold here after patent US10011833B2, “Bridged bicyclic nucleosides” (MIRAGEN THERAPEUTICS, INC., priority 2013, dated 2018).

The subject of one data set is mature human miR-208a. As to the kind of experiment: Duplex melting temperature (Tm) of anti-208a oligonucleotides annealed to complementary RNA. It is filed as binding. The settings on record: for Tm / ΔTm/mod / ΔTm, DNA / ΔTm, parent: RNA complement; for Tm: duplex 1 μM in 0.9% NaCl, in °C (unit assumed); for ΔTm, DNA: versus fully DNA oligo 10931; for ΔTm, parent: versus parent 10101. As to the method:
The melting temperature (Tm) of modified 16 nucleotide phosphodiester strands were determined and compared to the Tm of identical 16 nucleotide sequences having natural phosphodiester DNA nucleotides. Specifically, the relative aminoCBBN melting temperature (Tm) compared to the 2′-deoxynucleoside or oxoCBBN nucleoside with the same nucleobase was determined on a per incorporation basis by determining the difference between the melting temperature of the amino-modified 16 nucleotide length phosphodiester strand and that of the identical 16 nucleotide sequence utilizing either the 2′-deoxynucleoside or oxoCBBN phosphodiester DNA nucleotide. Tm differences of substitutions were compared only when they were placed in the same position of the sequence.
For example, the modified anti-208a oligonucleotides were annealed to the complementary sequence, twenty-two nucleotides in length, comprised of RNA nucleosides and a phosphate backbone. The complementary sequence was identical to the endogenous mature miRNA. Thermal denaturation temperatures (Tm) were measured as a maximum of the first derivative plot of melting curvex (A260 vs. Temp). The duplexes were constituted at 1 μM in a 0.9% NaCl buffer. Temperature was ramped from 25° C. to 95° C. at 1° C./min and OD's at 260 nm were read once per 30 seconds. Tm values are averages of at least two measurements.
Duplex melting temperatures for various modifications of a 16 nucleotide sequence, complementary to a nucleotide sequence of mature human miR-208a were measured using a Varian Cary 1E UV-Vis Spectrophotometer. Anti-miRNA 208a oligonucleotide sequences tested included a fully DNA phosphodiester (compound M-10931), four DNA phosphodiester oligonucleotides with 1, 2 or 3 aminoCBBN thymidine residues in place of dT residues (compounds M-1915, M-1916, M-1917, and M-11918), mixed 9 LNA/7 DNA phosphorothioate oligonucleotide (compound M-10101), and 2 mixed LNA/DNA/aminoCBBN phosphorothioate oligonucleotides where LNA thymidines of the parent compound, compound M-10101, were replaced with either 1 or 2 aminoCBBN residues (compounds M-11919 and M-11920). Duplexes were constituted at 1 μM in 0.9% NaCl. Temperature was ramped from 25° C. to 95° C. at 1° C./min and OD's at 260 nm were read once per 30 seconds.

The next data set deals with miR-208a. In words: Dual-luciferase reporter assay in HeLa cell line stably expressing miR-208a. Particulars: HeLa cells expressing miR-208a, 24 hours at 37° C., FIG. 6. Format: cell-based. The procedure:
A HeLa cell line stably expressing miR-208a was generated. Specifically, a miRNA expression vector (Cell BioLabs, Inc.) expressing miR-208a was transfected into HeLa cells. Cells were then selected using a puromycin selection screen and clones which had detectable miR-208a expression as measured by qPCR were isolated (Ct value=˜30).
The cells were plated in a black-walled 96 well plate with 10,000 cells per well. After twenty-four hours following plating, the cells were transfected with a dual-luciferase plasmid containing the miR-208a binding site in the 3′ UTR of the renilla gene and various miR-208a inhibitors (compounds M-11919, M-11920, and M-10101). Compound M-10591 was a non-targeting control. The cells were incubated for 24 hours at 37° C. and then both firefly (as a transfection normalization) and renilla levels were measured by luminescence using the Dual-Luciferase Reporter Assay System (Promega). Data was normalized to cells treated with only the miR-208a dual luciferase plasmid (psi check 208a).

The test system of another data set is RNA Complement. Particulars: 9mer, phosphate backbone, cited from earlier work; for Tm: RNA complement, literature values.
Where [1] appears, read: PS backbone, per modification versus parent 10101.

“Also recorded” adds a separate entry of the source.

With “bC.bT.bT.bT.bT.bT.dG.bC.bT.bC.dG.bT.bC.bT.bT. dA [Oligo 10924, reference compound]”, in the data set on mature human miR-208a (phosphate backbone), the Tm is given as 89.8 and the ΔTm, DNA is 36.7 °C. Also, the ΔTm/mod in the data set with mature human miR-208a (phosphate backbone, per modification versus DNA) is recorded as 2.8 ° C./modification.

As for “lCs.dTs.dTs.dTs.lTs.lTs.dGs.lCs.dTs.lCs.lGs.dTs.lCs. dTs.abTs.lA [Oligo 11920]”, in the data set on mature human miR-208a (PS backbone, 10101-like), the Tm was 85.125. Further, the ΔTm/mod with mature human miR-208a (setting [1]) is -0.7875 ° C./modification. Also, the “ΔTm, parent” value in the data set with mature human miR-208a (PS backbone) is reported as -1.575. The “miR208a inhibition activity (dual-luciferase reporter), in words” value in the data set with miR-208a (listed as M-11920) is “comparable activity as compound M-10101; also recorded: retains all activity of the optimized M-10101 compound”.

For the substance “lCs.dTs.dTs.dTs.abTs.abTs.dGs.lCs.dTs.lCs.lGs.dTs. lCs.dTs.lTs.lA [Oligo 11919]”, the “affinity for the miR-208a RNA (Tm data), in words” value in the data set with mature human miR-208a (PS backbone oligonucleotides) is on record as “less affinity for the miR-208a RNA than the M-11920 compound”. Besides, the Tm in the data set with mature human miR-208a (PS backbone, 10101-like) came out at 80.04. Also, in the data set on mature human miR-208a (setting [1]), the ΔTm/mod is reported as -6.66 ° C./modification. Further, the “ΔTm, parent” value in the data set on mature human miR-208a (PS backbone) is listed as -6.66. Moreover, in the data set on miR-208a, the “miR208a inhibition activity (dual-luciferase reporter), in words” value is “slightly less activity compared to the other two inhibitors”.

For the substance “dG;IT;dG;dA;IT;dA;IT;dG;dC [DNA_9mer_PO_3LNA-T]”, the Tm with RNA Complement was 50 °C.

On to “dC;dT;dT;dT;dT;dT;dG;dC;dT;dC;dG;dT;dC;dT;dT;dA (antisense CTTTTTGCTCGTCTTA; DNA, backbone not given here) [Oligo 10931, reference compound]”, for which, in the data set on mature human miR-208a (phosphate backbone), the Tm amounted to 53.1 and the ΔTm, DNA turned out to be 0 °C.

On to “ICs;dTs;dTs;dTs;ITs;ITs;dGs;ICs;dTs;ICs;IGs;dTs;ICs;dTs;ITs;IA [Oligo 10101, reference compound]”, for which the Tm in the data set on mature human miR-208a (PS backbone, 10101-like) is listed as 86.7.

“dG;aIT;dG;dA;aIT;dA;aIT;dG;dC [DNA_9mer_PO_3aminoLNA-T]”: the Tm in the data set on RNA Complement is 47 °C. Also, the ΔTm/mod in the data set with RNA Complement (versus 3LNA-T parent, literature) is reported as -1 ° C./modification.
